molecular target: T1, KATP channels (Homo sapiens, UniProt O60706+Q14654); assay: Potassium Channel Assay (FLIPR membrane potential, TE671 cells); type: cell-based; conditions: TE671 human medulloblastoma cells, Membrane Potential Assay Dye, room temperature, hyperpolarization from KATP channel opening
T1 construct: TE671 human medulloblastoma cells were obtained from ATCC; host or cells: TE671 human medulloblastoma cells
Experimental: TE671 human medulloblastoma cells were obtained from ATCC and grown in Dulbecco's modified Eagle's medium (DMEM) supplemented with 10% fetal bovine serum, 100 U/ml penicillin and 100 U/ml streptomycine.
The day before testing, the cells were plated in black 96-well plates at 50K/well. On the day of testing, the growth media was removed, then 100 μl of FLIPR buffer (20 mM HEPES, 120 mM NaCl, 2 mM KCl, 2 mM CaCl2, 1 mM MgCl2, 5 mM Glucose) and 100 μl of Membrane Potential Assay Dye (Molecular Devices) dissolved in FLIPR buffer were added to each well. The cells were incubated at room temperature for 15 to 30 min.
The effect of test compounds on KATP channels were evaluated on a fluorometric imaging plate reader (FLIPR, Molecular Devices) at room temperature. After a baseline period, 50 μl of 5× stock solution of test compound prepared in FLIPR buffer was added and fluorescent change was monitored for 3 minutes. After this reading, glyburide, a KATP channel blocker, was added to a final concentration of 5 μM to check the specificity of the test compound as a KATP channel openers. Hyperpolarization resulting from KATP channel opening was observed as a decrease in fluorescent intensity.
Representative compounds of the present invention were tested according to the procedure described above, with results as listed in Table 7, below.

T1 sequence (O60706 1-1549 isoform O60706-2): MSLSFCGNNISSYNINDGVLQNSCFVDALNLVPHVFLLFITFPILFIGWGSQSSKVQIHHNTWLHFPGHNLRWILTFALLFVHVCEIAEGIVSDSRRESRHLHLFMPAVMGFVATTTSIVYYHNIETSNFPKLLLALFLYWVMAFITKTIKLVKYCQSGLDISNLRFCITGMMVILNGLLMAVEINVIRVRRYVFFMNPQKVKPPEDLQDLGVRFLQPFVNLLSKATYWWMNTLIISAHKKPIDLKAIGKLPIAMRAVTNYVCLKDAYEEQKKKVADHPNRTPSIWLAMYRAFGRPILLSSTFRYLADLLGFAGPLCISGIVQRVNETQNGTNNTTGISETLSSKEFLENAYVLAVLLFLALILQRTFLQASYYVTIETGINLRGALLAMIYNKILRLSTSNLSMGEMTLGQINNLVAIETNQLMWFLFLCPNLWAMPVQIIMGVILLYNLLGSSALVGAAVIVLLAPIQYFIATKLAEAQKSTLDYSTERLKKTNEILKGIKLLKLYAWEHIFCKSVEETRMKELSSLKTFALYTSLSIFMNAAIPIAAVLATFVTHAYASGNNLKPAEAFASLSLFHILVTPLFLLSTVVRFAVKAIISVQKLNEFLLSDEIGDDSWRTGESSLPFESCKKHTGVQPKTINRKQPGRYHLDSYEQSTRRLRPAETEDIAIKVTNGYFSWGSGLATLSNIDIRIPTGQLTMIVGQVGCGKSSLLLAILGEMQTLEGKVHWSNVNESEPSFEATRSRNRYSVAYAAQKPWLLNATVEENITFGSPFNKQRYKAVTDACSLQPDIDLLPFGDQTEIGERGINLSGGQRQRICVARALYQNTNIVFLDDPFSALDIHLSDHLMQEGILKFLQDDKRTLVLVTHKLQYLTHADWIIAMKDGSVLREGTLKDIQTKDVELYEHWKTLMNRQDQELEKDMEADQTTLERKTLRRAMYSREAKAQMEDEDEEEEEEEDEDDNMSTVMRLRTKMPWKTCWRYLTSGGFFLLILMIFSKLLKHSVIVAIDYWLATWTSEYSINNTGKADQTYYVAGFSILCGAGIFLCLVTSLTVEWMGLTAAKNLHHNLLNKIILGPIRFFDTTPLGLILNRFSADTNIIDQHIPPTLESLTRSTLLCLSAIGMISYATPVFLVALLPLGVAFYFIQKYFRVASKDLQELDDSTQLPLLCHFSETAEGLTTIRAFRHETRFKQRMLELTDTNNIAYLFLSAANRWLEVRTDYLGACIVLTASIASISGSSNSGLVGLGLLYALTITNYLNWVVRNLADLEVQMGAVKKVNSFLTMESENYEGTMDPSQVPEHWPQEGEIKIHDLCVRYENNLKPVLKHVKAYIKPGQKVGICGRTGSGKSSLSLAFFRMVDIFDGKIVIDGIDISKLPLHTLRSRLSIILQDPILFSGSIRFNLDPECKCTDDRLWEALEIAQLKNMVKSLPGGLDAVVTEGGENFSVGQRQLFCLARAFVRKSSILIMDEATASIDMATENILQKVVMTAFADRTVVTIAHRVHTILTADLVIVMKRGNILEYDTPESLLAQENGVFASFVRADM
T1 sequence (Q14654 whole entry): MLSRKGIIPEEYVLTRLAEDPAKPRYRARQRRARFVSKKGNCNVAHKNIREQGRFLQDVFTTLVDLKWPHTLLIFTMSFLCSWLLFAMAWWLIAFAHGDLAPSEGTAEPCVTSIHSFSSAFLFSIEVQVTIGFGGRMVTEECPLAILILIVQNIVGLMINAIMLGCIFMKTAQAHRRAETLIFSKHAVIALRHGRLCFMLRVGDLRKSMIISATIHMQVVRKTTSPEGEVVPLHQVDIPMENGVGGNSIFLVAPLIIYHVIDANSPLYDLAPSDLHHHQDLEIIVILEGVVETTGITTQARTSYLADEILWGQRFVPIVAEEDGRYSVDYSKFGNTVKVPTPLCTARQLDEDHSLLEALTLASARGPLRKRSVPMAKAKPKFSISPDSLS

EC50 [µM]	SMILES
8.82	CC1(C)Oc2ccc(C#N)cc2[C@@H](Oc2ccn(-c3ccc(Cl)cc3)n2)[C@@H]1O (racemic) [Compound 55, 4-[1-(4-Chloro-phenyl)-1H-pyrazol-3-yloxy]-3-hydroxy-2,2-dimethyl-chroman-6-carbonitrile]
5.7	CC1(C)Oc2ccc(C#N)cc2[C@@H](n2ccnc2-c2ccc(Cl)cc2)[C@@H]1O (racemic) [Compound 12, 4-[2-(4-Chloro-phenyl)-imidazol-1-yl]-3-hydroxy-2,2-dimethyl-chroman-6-carbonitrile]
> 30	CC1(C)Oc2ccc(C#N)cc2[C@@H](N2CCN(c3ccc(Cl)cc3)CC2)[C@@H]1O (racemic) [Compound 50, 4-[4-(4-Chloro-phenyl)-piperazin-1-yl]-3-hydroxy-2,2-dimethyl-chroman-6-carbonitrile]
20	CC1(C)Oc2ccc(C#N)cc2[C@@H](n2nc(N)c3ccccc32)[C@@H]1O [Compound 37, 4R-(3-Amino-indazol-1-yl)-3S-hydroxy-2,2-dimethyl-chroman-6-carbonitrile]
> 30	CCN(CC)C(=O)c1ccc2c(c1)[C@@H](Nc1noc3ccc(Cl)cc13)[C@H](O)C(C)(C)O2 [Compound 89, 4R-(5-Chloro-benzo[d]isoxazol-3-ylamino)-3S-hydroxy-2,2-dimethyl-chroman-6-carboxylic acid diethylamide]
> 30	CCN(CC)S(=O)(=O)c1ccc2c(c1)[C@@H](Oc1noc3cc(Cl)ccc13)[C@H](O)C(C)(C)O2 [Compound 79, 4R-(6-Chloro-benzo[d]isoxazol-3-yloxy)-3S-hydroxy-2,2-dimethyl-chroman-6-sulfonic acid diethylamide]
20.5	CC1(C)Oc2cc(Cl)c(Cl)cc2[C@@H](Oc2noc3cc(Cl)ccc23)[C@@H]1O [Compound 93, 6,7-Dichloro-4R-(6-chloro-benzo[d]isoxazol-3-yloxy)-2,2-dimethyl-chroman-3S-ol]
4.4	CC1(C)Oc2ccc(C#N)cc2[C@@H](n2nc(N)c3ccc(Br)cc32)[C@@H]1O [Compound 35, 4R-(3-Amino-6-bromo-indazol-1-yl)-3S-hydroxy-2,2-dimethyl-chroman-6-carbonitrile]
3.16	CC1(C)Oc2ccc(C#N)cc2[C@@H](N2C(=O)c3ccc(Cl)cc3C2=O)[C@@H]1O [Compound 115, 4-(5-Chloro-1,3-dioxo-1,3-dihydro-isoindol-2-yl)-3-hydroxy-2,2-dimethyl-chroman-6-carbonitrile]
> 30	CC1(C)Oc2ccc(C#N)cc2[C@@H](Sc2nc3cc(OC(F)F)ccc3[nH]2)[C@@H]1O (racemic) [Compound 16, 4-(5-Difluoromethoxy-1H-benzoimidazol-2-ylsulfanyl)-3-hydroxy-2,2-dimethyl-chroman-6-carbonitrile]
28.3	CC1(C)C=C(Nc2nc(=O)c3ccccc3[nH]2)c2cc(C#N)ccc2O1 [Compound 46, 2,2-Dimethyl-4-(4-oxo-1,4-dihydro-quinazolin-2-ylamino)-2H-chromene-6-carbonitrile]
> 30	CC1(C)Oc2ccc(C#N)cc2[C@@H](Oc2ccc(-c3ccc(Cl)cc3)nn2)[C@@H]1O (racemic) [Compound 56, 4-[6-(4-Chloro-phenyl)-pyridazin-3-yloxy]-3-hydroxy-2,2-dimethyl-chroman-6-carbonitrile]
14.6	CC1(C)Oc2ccc(C#N)cc2[C@@H](Nc2nc3cc(Cl)ccc3s2)[C@@H]1O (racemic) [Compound 1, 4-(5-Chloro-benzothiazol-2-ylamino)-3-hydroxy-2,2-dimethyl-chroman-6-carbonitrile]
6.04	CC1(C)Oc2ccc(C#N)cc2[C@@H](N2C(=O)c3ccncc3C2=O)[C@@H]1O [Compound 26, 4R-(1,3-Dioxo-1,3-dihydro-pyrrolo[3,4-c]pyridin-2-yl)-3S-hydroxy-2,2-dimethyl-chroman-6-carbonitrile]
8.44	CC1(C)Oc2ccc(C#N)cc2[C@@H](Nc2nc3cc(F)ccc3s2)[C@@H]1O (racemic) [Compound 5, 4-(5-Fluoro-benzothiazol-2-ylamino)-3-hydroxy-2,2-dimethyl-chroman-6-carbonitrile]
> 30	CC1(C)C=C(Oc2nsc3cc([N+](=O)[O-])ccc23)c2cc(C#N)ccc2O1 [Compound 69, (3S,4R)-2,2-Dimethyl-R-(6-nitro-benzo[d]isothiazol-3-yloxy)-2H-chromene-6-carbonitrile]
20.7	CC1(C)Oc2ccc(C(=O)c3ccccc3)cc2[C@@H](Oc2noc3cc(Cl)ccc23)[C@@H]1O [Compound 95]

EC50 [µM]	SMILES
7.77	CC1(C)Oc2ccc(S(=O)(=O)c3cccc(F)c3)cc2[C@@H](Nc2noc3ccc(Cl)cc23)[C@@H]1O [Compound 103, 4R-(5-Chloro-benzo[d]isoxazol-3-ylamino)-6-(3-fluoro-benzenesulfonyl)-2,2-dimethyl-chroman-3S-ol]
1.08	CC1(C)Oc2ccc(S(=O)(=O)N3CCCCC3)cc2[C@@H](n2oc3cc(Cl)ccc3c2=O)[C@@H]1O [Compound 84, 6-Chloro-2-[3S-hydroxy-2,2-dimethyl-6-(piperidine-1-sulfonyl)-chroman-4-yl]-R-benzo[d]isoxazol-3-one]
26.4	CC1(C)Oc2ccncc2[C@@H](Oc2ccn(-c3ccc(Cl)cc3)n2)[C@@H]1O (racemic) [Compound 109, 4-[1-(4-Chloro-phenyl)-1H-pyrazol-3-yloxy]-2,2-dimethyl-3,4-dihydro-2H-pyrano[3,2-c]pyridin-3-ol]
3.64	CC1(C)Oc2ccc(C#N)cc2[C@@H](N2C(=O)C(=O)c3cc(Cl)ccc32)[C@@H]1O [Compound 24, (3S,4R)-4-(5-Chloro-2,3-dioxo-2,3-dihydro-indol-1-yl)-3-hydroxy-2,2-dimethyl-chroman-6-carbonitrile]
> 30	N#Cc1ccc2c(c1)[C@@H](NC(=O)c1cccc(Cl)c1)[C@H](O)C1(CCS(=O)(=O)CC1)O2 [Compound 201, (3S,4R)-3-Chloro-N-[6-cyano-3-hydroxy-2,2-(tetrahydro-4-sulfonylpyranyl)-chroman-4-yl]-benzamide]
2.62	CC1(C)Oc2ccc(C#N)cc2[C@@H](Oc2ccn(-c3ccccc3)n2)[C@@H]1O (racemic) [Compound 58, 3-Hydroxy-2,2-dimethyl-4-(1-phenyl-1H-pyrazol-3-yloxy)-chroman-6-carbonitrile]
9.12	CC1(C)Oc2ccc(C#N)cc2[C@@H](Nc2nc(=O)c3cc(Cl)ccc3[nH]2)[C@@H]1O [Compound 64, (3S,4R)-4-(6-Chloro-4-oxo-1,4-dihydro-quinazolin-2-ylamino)-3-hydroxy-2,2-dimethyl-chroman-6-carbonitrile]
2.6	CCOc1ccc2sc(N[C@@H]3c4cc(C#N)ccc4OC(C)(C)[C@H]3O)nc2c1 (racemic) [Compound 4, 4-(5-Ethoxy-benzothiazol-2-ylamino)-3-hydroxy-2,2-dimethyl-chroman-6-carbonitrile]
0.1	CC1(C)Oc2ccc(S(=O)(=O)c3ccccc3)cc2[C@@H](n2oc3cc(Cl)ccc3c2=O)[C@@H]1O [Compound 78, 2-(6-Benzenesulfonyl-3S-hydroxy-2,2-dimethyl-chroman-4-yl)-6-chloro-4R-benzo[d]isoxazol-3-one]
16.5	CC1(C)Oc2ccc(C#N)cc2[C@@H](Nc2nc3cc(Cl)ccc3o2)[C@@H]1O (racemic) [Compound 2, 4-(5-Chloro-benzooxazol-2-ylamino)-3-hydroxy-2,2-dimethyl-chroman-6-carbonitrile]
21.4	CC1(C)Oc2ccc(C#N)cc2[C@@H](N2CC3(CCCCC3)CC2=O)[C@@H]1O [Compound 34, 3S-Hydroxy-2,2-dimethyl-4R-(3-oxo-2-aza-spiro[4.5]dec-2-yl)-chroman-6-carbonitrile]
13.8	CC1(C)Oc2ccncc2[C@@H](n2cncc2-c2ccc(Cl)cc2)[C@@H]1O (racemic) [Compound 113, 4-[5-(4-Chloro-phenyl)-imidazol-1-yl]-2,2-dimethyl-3,4-dihydro-2H-pyrano[3,2-c]pyridin-3-ol]
9.91	CC1(C)C=C(Oc2ccc(-c3ccccc3)nn2)c2cc(C#N)ccc2O1 [Compound 53, 2,2-Dimethyl-4-(6-phenyl-pyridazin-3-yloxy)-2H-chromene-6-carbonitrile]
6.94	CC1(C)Oc2ccc(C#N)cc2[C@@H](Oc2noc3ccccc23)[C@@H]1O [Compound 23, (3S,4R)-4-(Benzo[d]isoxazol-3-yloxy)-3-hydroxy-2,2-dimethyl-chroman-6-carbonitrile]
29.8	CC1(C)Oc2ccncc2[C@@H](n2nc(-c3ccc(Cl)cc3)ccc2=O)[C@@H]1O (racemic) [Compound 112, 6-(4-Chloro-phenyl)-2-(3-hydroxy-2,2-dimethyl-3,4-dihydro-2H-pyrano[3,2-c]pyridin-4-yl)-2H-pyridazin-3-one]
26.3	CC1(C)Oc2ccc(Cl)cc2C(OC(=O)c2cccc(Cl)c2)C1O (racemic) [Compound 3]
> 30	CCN(CC)S(=O)(=O)c1ccc2c(c1)[C@@H](Nc1noc3ccc(Cl)cc13)[C@H](O)C(C)(C)O2 (racemic) [Compound 80, 4R-(5-Chloro-benzo[d]isoxazol-3-ylamino)-3S-hydroxy-2,2-dimethyl-chroman-6-sulfonic acid diethylamide]

From patent US7812183B2, “Benzopyran derivatives as potassium channel openers” (Janssen Pharmaceutica NV, priority 2005, dated 2010)
